Assay results published in article PMC10302047, “Structure–Activity Relationship Studies of Indolglyoxyl-Polyamine Conjugates as Antimicrobials and Antibiotic Potentiators” (Pharmaceuticals, 2023).
≈ marks a conversion by molar mass, not a printed value. Read-outs that look alike come from different tables or passages of the source.

What was measured:
[1] = tested on: S. aureus ATCC 25923; assay: Antimicrobial susceptibility (MIC), S. aureus; type: cell-based, Staphylococcus aureus; settings: for MIC: Staphylococcus aureus, ATCC25923, S. aureus ATCC 25923, mean (n = 3)
Experimental: (§1) The susceptibility of bacterial strains S. aureus (ATCC 25923), E. coli (ATCC 25922) and P. aeruginosa (ATCC 27853) to antibiotics and compounds was determined according to previously reported protocols. Additional antimicrobial evaluation against MRSA (ATCC 43300) and C. albicans (ATCC 90028) was undertaken at the Community for Open Antimicrobial Drug Discovery at The University of Queensland (Australia) according to their standard protocols as reported previously.

[2] = tested on: MRSA ATCC 43300; assay: Antimicrobial susceptibility (MIC), MRSA; type: cell-based; settings: Staphylococcus aureus, read-out: MIC MRSA
Experimental: as §1

[3] = tested on: P. aeruginosa ATCC 27853; assay: Antimicrobial susceptibility (MIC), P. aeruginosa; type: cell-based; settings: Pseudomonas aeruginosa
Experimental: as §1

[4] = tested on: E. coli ATCC 25922; assay: Antimicrobial susceptibility (MIC), E. coli; type: cell-based; settings: Escherichia coli, ATCC25922, mean (n = 3)
Experimental: as §1

[5] = tested on: C. albicans ATCC 90028; assay: Antifungal susceptibility (MIC), C. albicans; type: cell-based; settings: Candida albicans, ATCC90028, mean (n = 2)
Experimental: as §1

[6] = Cytotoxicity assay HEK293; type: cell-based, human; settings: human, HEK293 cells, mean (n = 2), read-out: Cyto. IC50 (concentration of compound at 50% cytotoxicity)
Experimental: Cytotoxicity assays were conducted according to previously reported protocols.

[7] = tested on: human red blood cells; assay: Hemolytic assay; type: cell-based; settings: mean (n = 2)
Experimental: Hemolysis assays were conducted according to previously reported protocols.

[8] = tested on: P. aeruginosa ATCC 27853; assay: Antibiotic potentiation (MIC of antibiotics in the presence of synergizing compounds), P. aeruginosa; type: cell-based, Pseudomonas aeruginosa; settings: concentration required to restore doxycycline activity at 2 µg/mL (4.5 µM) against P. aeruginosa ATCC 27853
[9] = ATCC27853, mean (n = 3), read-out: MIC P. a

Row | Structure (SMILES) | MIC [1] | MIC ([2]; MRSA ATCC 43300, mean (n = 2)) | MIC [3, 9] | MIC [4] | MIC [5] | IC50 [6] | Hem. HC10 (concentration of compound at 10% hemolytic activity) [7] | Conc (µM) for Potentiation of doxycycline [8] | MIC [2] | MIC ([3]; ATCC27853, read-out: observed MIC of doxycycline) | S. aureus and MRSA MIC (range over both strains) ([1]; S. aureus ATCC 25923 and MRSA, summary range in text)
1 | COc1ccc2[nH]cc(C(=O)C(=O)NCCCNCCCCCCCCNCCCNC(=O)C(=O)c3c[nH]c4ccc(OC)cc34)c2c1 [Compound 19c] | > 100 µM | > 36 µM | > 100 µM | > 100 µM | 36 µM (≈ 23.8 µg/mL) | 18 µM | 26 µM | 25 µM | – | – | –
2 | Cc1ccc2[nH]cc(C(=O)C(=O)NCCCNCCCCCCNCCCNC(=O)C(=O)c3c[nH]c4ccc(C)cc34)c2c1.O=C(O)C(F)(F)F.O=C(O)C(F)(F)F [Compound 20a, N^1,N^6-Bis(3-(2-(5-methyl-1H-indol-3-yl)-2-oxoacetamido)propyl)hexane-1,6-diaminium 2,2,2-trifluoroacetate] | 12.5 µM | ≤ 0.3 µM | 200 µM | 50 µM | > 39 µM | > 39 µM | – | 12.5 µM | – | – | –
3 | Cc1ccc2[nH]cc(C(=O)C(=O)NCCCNCCCCCCCCCCCCNCCCNC(=O)C(=O)c3c[nH]c4ccc(C)cc34)c2c1.O=C(O)C(F)(F)F.O=C(O)C(F)(F)F [Compound 20e, N^1,N^12-Bis(3-(2-(5-methyl-1H-indol-3-yl)-2-oxoacetamido)propyl)dodecane-1,12-diaminium 2,2,2-trifluoroacetate] | 3.12 µM | – | 800 µM | 12.5 µM | 2.2 µM | – | 2.0 µM | 400 µM | – | – | –
4 | COc1cccc2c(C(=O)C(=O)NCCCNCCCCCCCCNCCCNC(=O)C(=O)c3c[nH]c4c(OC)cccc34)c[nH]c12 [Compound 22c] | 25 µM (≈ 16.5 µg/mL) | 4.5 µM (≈ 2.97 µg/mL) | 800 µM | 200 µM (≈ 132 µg/mL) | > 36 µM | – | >36 µM | 200 µM | – | – | –
5 | Cc1ccc2[nH]cc(C(=O)C(=O)NCCCNCCCCCCCNCCCNC(=O)C(=O)c3c[nH]c4ccc(C)cc34)c2c1.O=C(O)C(F)(F)F.O=C(O)C(F)(F)F [Compound 20b, N^1,N^7-Bis(3-(2-(5-methyl-1H-indol-3-yl)-2-oxoacetamido)propyl)heptane-1,7-diaminium 2,2,2-trifluoroacetate] | 6.25 µM | ≤ 0.3 µM | 200 µM | 50 µM | > 38 µM | – | >38 µM | 12.5 µM | – | – | –
6 | O=C(NCCCNCCCCCCNCCCNC(=O)C(=O)c1c[nH]c2ccccc12)C(=O)c1c[nH]c2ccccc12.O=C(O)C(F)(F)F.O=C(O)C(F)(F)F [Compound 17a, N^1,N^6-Bis(3-(2-(1H-indol-3-yl)-2-oxoacetamido)propyl)hexane-1,6-diaminium 2,2,2-trifluoroacetate] | 12.5 µM | > 40 µM | > 200 µM | 50 µM | > 40 µM | – | – | 12.5 µM | – | – | –
7 | Cc1cccc2c(C(=O)C(=O)NCCCNCCCCCCCCCCNCCCNC(=O)C(=O)c3c[nH]c4c(C)cccc34)c[nH]c12.O=C(O)C(F)(F)F.O=C(O)C(F)(F)F [Compound 23d, N^1,N^10-Bis(3-(2-(7-methyl-1H-indol-3-yl)-2-oxoacetamido)propyl)decane-1,10-diaminium 2,2,2-trifluoroacetate] | 7.1 µM | ≤ 0.28 µM | > 230 µM | 14.1 µM | 18 µM | > 36 µM | – | 230 µM | – | – | –
8 | Cc1ccc2[nH]cc(C(=O)C(=O)NCCCNCCCCCCCCCCNCCCNC(=O)C(=O)c3c[nH]c4ccc(C)cc34)c2c1.O=C(O)C(F)(F)F.O=C(O)C(F)(F)F [Compound 20d, N^1,N^10-Bis(3-(2-(5-methyl-1H-indol-3-yl)-2-oxoacetamido)propyl)decane-1,10-diaminium 2,2,2-trifluoroacetate] | 3.12 µM | ≤ 0.28 µM | 800 µM | 12.5 µM | 9 µM | > 36 µM | – | 400 µM | – | – | –
9 | O=C(N[C@H](CO)[C@H](O)c1ccc([N+](=O)[O-])cc1)C(Cl)Cl [chloramphenicol, reference compound] | 1.5 to 3 µM (≈ 0.485 to 0.969 µg/mL) | – | > 200 µM | > 200 µM | – | – | – | – | – | – | –
10 | CN[C@H](CC(C)C)C(=O)N[C@H]1C(=O)N[C@@H](CC(N)=O)C(=O)N[C@H]2C(=O)N[C@H]3C(=O)N[C@H](C(=O)N[C@H](C(=O)O)c4cc(O)cc(O)c4-c4cc3ccc4O)[C@H](O)c3ccc(c(Cl)c3)Oc3cc2cc(c3O[C@@H]2O[C@H](CO)[C@@H](O)[C@H](O)[C@H]2O[C@H]2C[C@](C)(N)[C@H](O)[C@H](C)O2)Oc2ccc(cc2Cl)[C@H]1O [vancomycin, reference compound] | – | – | – | – | – | – | – | – | 0.7 µM (≈ 1.01 µg/mL) | – | –
11 | OC(Cn1cncn1)(Cn1cncn1)c1ccc(F)cc1F [fluconazole, reference compound] | – | – | – | – | 0.4 µM (≈ 0.123 µg/mL) | – | – | – | – | – | –
12 | CN(C)c1ccc(O)c2c1C[C@H]1C[C@H]3[C@H](N(C)C)C(O)=C(C(N)=O)C(=O)[C@@]3(O)C(O)=C1C2=O [minocycline, reference compound] | – | – | 70 µM | – | – | – | – | – | – | – | –
13 | C[C@H]1c2cccc(O)c2C(=O)C2=C(O)[C@]3(O)C(=O)C(C(N)=O)=C(O)[C@@H](N(C)C)[C@@H]3[C@@H](O)[C@@H]21 [doxycycline, reference compound] | – | – | 50 µM | 25 µM (≈ 11.1 µg/mL) | – | – | – | – | – | 20 µg/mL | –
14 | [H]/N=C(/N)N[C@H]1[C@H](O)[C@@H](O)[C@H](O[C@@H]2O[C@@H](C)[C@](O)(C=O)[C@H]2O[C@@H]2O[C@@H](CO)[C@H](O)[C@@H](O)[C@@H]2NC)[C@@H](N/C(N)=N\[H])[C@@H]1O [streptomycin, reference compound] | 21.5 µM (≈ 12.5 µg/mL) | – | 21.5 µM | 21.5 µM (≈ 12.5 µg/mL) | – | – | – | – | – | – | –
15 | CC/C(=C(\c1ccccc1)c1ccc(OCCN(C)C)cc1)c1ccccc1 [tamoxifen, reference compound] | – | – | – | – | – | 24 µM | – | – | – | – | –
16 | COc1cccc2c(C(=O)C(=O)NCCCNCCCCCCCCCCCCNCCCNC(=O)C(=O)c3c[nH]c4c(OC)cccc34)c[nH]c12 [Compound 22e] | 3.12 µM (≈ 2.24 µg/mL) | ≤ 0.26 µM | 800 µM | 12.5 µM (≈ 8.96 µg/mL) | ≤ 0.26 µM | – | 0.93 µM | 400 µM | – | – | 0.26 to 3.125 µM
17 | CCn1cc(C(=O)O)c(=O)c2ccc(C)nc21 [nalidixic acid, reference compound] | – | – | > 200 µM | > 200 µM | – | – | – | – | – | – | –
18 | CC[C@H]1OC(=O)[C@H](C)[C@@H](O[C@H]2C[C@@](C)(OC)[C@@H](O)[C@H](C)O2)[C@H](C)[C@@H](O[C@@H]2O[C@H](C)C[C@H](N(C)C)[C@H]2O)[C@](C)(O)C[C@@H](C)C(=O)[C@H](C)[C@@H](O)[C@]1(C)O [erythromycin, reference compound] | – | – | > 200 µM | > 200 µM | – | – | – | – | – | – | –
19 | Cc1ccc2[nH]cc(C(=O)C(=O)NCCCNCCCCCCCCNCCCNC(=O)C(=O)c3c[nH]c4ccc(C)cc34)c2c1.O=C(O)C(F)(F)F.O=C(O)C(F)(F)F [Compound 20c, N^1,N^8-Bis(3-(2-(5-methyl-1H-indol-3-yl)-2-oxoacetamido)propyl)octane-1,8-diaminium 2,2,2-trifluoroacetate] | 3.12 µM | 4.7 µM | 800 µM | 12.5 µM | > 37 µM | > 37 µM | – | 400 µM | – | – | –
